Results reported in US8710233B2 (Gruenenthal GmbH, priority 2005, dated 2014).
Read-outs that look alike come from different tables or passages of the source.

Columns and labels:
Format in all cases: cell-based
[1] = molecular target: T1, vanilloid receptor 1 (VR1/TRPV1) of the rat species (Rattus norvegicus, UniProt O35433); test: FLIPR Ca2+ influx assay on rat dorsal root ganglia cells (pharmacological method I)
T1 construct: The spinal column is removed from decapitated rats; from tissue; host or cells: primary cells dissociated from rat dorsal root ganglia
T1 sequence (O35433 whole entry): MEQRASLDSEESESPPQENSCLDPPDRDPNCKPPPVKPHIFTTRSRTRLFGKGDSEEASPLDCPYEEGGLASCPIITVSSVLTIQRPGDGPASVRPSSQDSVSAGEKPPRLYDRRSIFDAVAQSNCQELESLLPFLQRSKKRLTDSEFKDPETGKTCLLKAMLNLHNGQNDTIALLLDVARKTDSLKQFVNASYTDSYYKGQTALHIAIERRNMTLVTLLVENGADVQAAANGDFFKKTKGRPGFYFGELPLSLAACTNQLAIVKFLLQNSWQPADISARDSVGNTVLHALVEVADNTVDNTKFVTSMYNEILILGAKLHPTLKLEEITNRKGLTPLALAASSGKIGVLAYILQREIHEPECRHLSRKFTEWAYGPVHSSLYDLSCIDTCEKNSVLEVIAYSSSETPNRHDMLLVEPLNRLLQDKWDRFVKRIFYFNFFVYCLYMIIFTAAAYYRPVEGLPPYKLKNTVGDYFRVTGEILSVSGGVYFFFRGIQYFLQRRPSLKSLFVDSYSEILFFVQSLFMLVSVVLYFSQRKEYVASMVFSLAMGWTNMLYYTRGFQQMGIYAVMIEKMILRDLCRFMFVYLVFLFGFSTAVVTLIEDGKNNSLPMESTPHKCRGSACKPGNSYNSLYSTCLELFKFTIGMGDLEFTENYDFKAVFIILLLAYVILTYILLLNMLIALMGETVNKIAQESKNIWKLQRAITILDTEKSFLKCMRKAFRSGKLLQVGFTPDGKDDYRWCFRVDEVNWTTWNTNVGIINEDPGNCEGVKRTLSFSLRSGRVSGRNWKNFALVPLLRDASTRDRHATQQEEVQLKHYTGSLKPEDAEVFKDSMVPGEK
Text: I. Functional Investigation of the Vanilloid Receptor 1 (VR1/TRPV1 Receptor)
The agonistic or antagonistic action of the substances to be investigated on the vanilloid receptor 1 (VR1/TRPV1) of the rat species may be determined by the following assay. According to this assay, the influx of Ca^2+ through the receptor channel is quantified with the assistance of a Ca^2+-sensitive dye (type Fluo-4, Molecular Probes Europe BV, Leiden, Netherlands) in a Fluorescent Imaging Plate Reader (FLIPR, Molecular Devices, Sunnyvale, USA).
The spinal column is removed from decapitated rats and is placed directly in cold, i.e. located in an ice bath, HBSS buffer (Hank's buffered saline solution, Gibco Invitrogen GmbH, Karlsruhe, Germany) combined with 1 vol. % (percent by volume) of an AA solution (antibiotic/antimycotic solution, PAA, Pasching, Austria). The spinal column is cut open longitudinally and removed together with fasciae from the spinal canal. The dorsal root ganglia (DRGs) are then removed and in turn stored in cold HBSS buffer combined with 1 vol. % of an AA solution. The DRGs, from which all traces of blood and spinal nerves have been removed, are in each case transferred into 500 μL of cold collagenase type 2 (PAA, Pasching, Austria) and incubated for 35 minutes at 37° C. […] Once incubation is complete, the enzyme solution is carefully removed by pipette and the DRGs, which are left behind, are in each case combined with 500 μL of complete medium.
The DRGs are in each case repeatedly suspended, drawn by means of a syringe through […], no. 12 and no. 16 cannulas and transferred into 50 mL Falcon microtubes and each tube is made up to 15 mL with complete medium. The contents of each Falcon microtube are in each case filtered through a 70 μm Falcon filter insert and centrifuged for 10 minutes at 1200 revolutions and room temperature. The resultant pellet is in each case resuspended in 250 μL of complete medium and the cell count determined.
The number of cells in the suspension is adjusted to 3×10^5 per mL and a 150 μL portion of this suspension is in each case placed in a well of the cell culture plate which has been coated as described above.
The cells are then loaded with 2 μM Fluo-4 and 0.01 vol. % Pluronic F127 (Molecular Probes Europe BV, Leiden, Netherlands) in HBSS buffer (Hank's buffered saline solution, Gibco Invitrogen GmbH, Karlsruhe, Germany) for 30 min at 37° C., washed 3× with HBSS buffer and, after a further 15 minutes' incubation at room temperature, used for Ca^2+ measurement in the FLIPR assay. […] Quantification proceeds by measuring the highest fluorescence intensity (FC, fluorescence counts) over time.
The FLIPR protocol comprises 2 additions of substance. The compounds to be tested (10 μM) are firstly pipetted onto the cells and Ca^2+ influx is compared with the control (capsaicin 10 μM). This provides the percentage activation relative to the Ca^2+ signal after addition of 10 μM of capsaicin (CP). After 5 minutes' incubation, 100 nM of capsaicin are added and the influx of Ca^2+ is again determined.
Desensitising agonists and antagonists result in suppression of Ca^2+ influx. The percentage inhibition in comparison with the maximum achievable inhibition with 10 μM capsaicin is calculated.
Triplicate determinations (n═3) are performed and these are repeated in at least 3 independent experiments […].

vanilloid receptor (VR1) = molecular target: T2, vanilloid receptor (VR1) (Homo sapiens, UniProt Q8NER1); test: FLIPR Ca2+ influx assay on CHO K1 cells transfected with the VR1 gene (pharmacological method II)
T2 construct: expressed in transfected cells; host or cells: CHO K1 cells (ECACC), stably transfected
T2 sequence (Q8NER1 whole entry): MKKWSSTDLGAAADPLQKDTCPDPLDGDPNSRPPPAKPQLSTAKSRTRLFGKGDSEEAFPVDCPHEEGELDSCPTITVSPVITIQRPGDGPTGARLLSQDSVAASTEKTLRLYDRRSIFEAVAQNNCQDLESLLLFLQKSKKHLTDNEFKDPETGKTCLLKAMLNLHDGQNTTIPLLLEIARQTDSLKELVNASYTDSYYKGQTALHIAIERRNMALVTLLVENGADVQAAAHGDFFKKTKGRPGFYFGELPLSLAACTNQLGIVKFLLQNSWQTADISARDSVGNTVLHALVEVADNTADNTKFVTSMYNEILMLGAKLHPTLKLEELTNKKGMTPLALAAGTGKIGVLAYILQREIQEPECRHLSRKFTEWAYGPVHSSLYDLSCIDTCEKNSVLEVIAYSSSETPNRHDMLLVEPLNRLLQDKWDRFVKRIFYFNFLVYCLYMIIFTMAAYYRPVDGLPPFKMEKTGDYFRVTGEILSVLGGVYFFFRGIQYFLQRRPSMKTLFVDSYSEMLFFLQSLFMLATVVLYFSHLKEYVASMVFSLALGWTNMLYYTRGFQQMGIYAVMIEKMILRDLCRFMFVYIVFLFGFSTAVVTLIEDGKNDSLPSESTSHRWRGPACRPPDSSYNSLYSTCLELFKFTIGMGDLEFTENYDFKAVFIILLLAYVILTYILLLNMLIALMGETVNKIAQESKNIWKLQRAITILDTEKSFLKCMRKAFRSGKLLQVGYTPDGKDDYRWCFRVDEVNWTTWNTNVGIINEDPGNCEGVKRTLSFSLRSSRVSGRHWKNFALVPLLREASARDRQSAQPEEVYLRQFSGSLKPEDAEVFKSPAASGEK

VR1/TRPV1 receptor = VR1/TRPV1 receptor (Homo sapiens, UniProt Q8NER1); test: IC50 (human) after pH stimulus
Chain of VR1/TRPV1 receptor (Q8NER1 whole entry): as above

[2] = table 4, capsaicin, read-out: Ki (rat) Cap.
[3] = table 4, capsaicin, read-out: Ki (human) Cap.
[4] = @ 1 μM, ne = no effect, read-out: inhibition in percent, IC50 (human) after pH stimulus
[5] = read-out: inhibition in percent, IC50 (human) after pH stimulus
[6] = Table 2, displacement of capsaicin (100 nM), Cheng-Prusoff, read-out: Ki (rat)
[7] = Table 2, displacement of capsaicin (100 nM), Cheng-Prusoff, read-out: Ki (human)

Compound | Ki [1, 2] | Ki (vanilloid receptor (VR1); [3]) | IC50 (VR1/TRPV1 receptor; table 4) | further results
Cc1ccc(Nc2nc(C(F)(F)F)ccc2CNC(=O)C(C)c2ccc(NS(C)(=O)=O)c(F)c2)cc1C (centres unmarked) [Example 135, N-[2-(3,4-dimethyl-phenylamino)-6-trifluoromethyl-pyridin-3-ylmethyl]-2-(3-fluoro-4-methylsulfonamido-phenyl)-propionamide] | 48.9 nM | 39.3 nM | 1160 nM | 
CC(C(=O)NCc1ccc(C(F)(F)F)nc1N1CCCCC1C)c1ccc(NS(C)(=O)=O)c(F)c1 (centres unmarked) [Example 283, 2-(3-fluoro-4-methylsulfonamido-phenyl)-N-(2-methyl-6′-trifluoromethyl-3,4,5,6-tetrahydro-2H-[1,2′]bipyridinyl-3′-ylmethyl)-propionamide] | 4.5 nM | 2.9 nM |  | inhibition at 1 µM (VR1/TRPV1 receptor; [4]): 51%; inhibition at 10 µM (VR1/TRPV1 receptor; [5]): 51%
CC(C(=O)NCc1ccc(C(F)(F)F)nc1N1CCN(c2ncccc2C(F)(F)F)CC1)c1ccc(NS(C)(=O)=O)c(F)c1 (centres unmarked) [Example 213, 2-(3-fluoro-4-methylsulfonamido-phenyl)-N-{6-trifluoromethyl-2-[4-(3-trifluoromethyl-pyridin-2-yl)-piperazin-1-yl]-pyridin-3-ylmethyl}-propionamide] | 2 nM | 2.8 nM |  | inhibition in percent, IC50 (human) after pH stimulus (VR1/TRPV1 receptor; @ 1 μM, ne = no effect): 37%; inhibition at 10 µM (VR1/TRPV1 receptor; [5]): 49%
CCc1ccc(COc2nc(C(F)(F)F)ccc2CNC(=O)C(C)c2ccc(NS(C)(=O)=O)c(F)c2)cc1 (centres unmarked) [Example 242, N-[2-(4-ethyl-benzyloxy)-6-trifluoromethyl-pyridin-3-ylmethyl]-2-(3-fluoro-4-methylsulfonamido-phenyl)-propionamide] |  | 3.7 nM | 165 nM | Ki ([1]; Ki (rat) Cap., table 4, capsaicin): 1.2 nM
CC(C(=O)NCc1ccc(C(F)(F)F)nc1-c1ccccc1)c1ccc(NS(C)(=O)=O)c(F)c1 (centres unmarked) [Example 22, 2-(3-fluoro-4-(methylsulfonamido)phenyl)-N-((2-phenyl-6-(trifluoromethyl)pyridin-3-yl)methyl)propanamide] |  |  |  | Ki [1, 6]: 4.9 nM; Ki (vanilloid receptor (VR1); [7]): 6.4 nM; IC50 (VR1/TRPV1 receptor; Table 2): 62 nM
CC(C(=O)NCc1ccc(C(F)(F)F)cc1N1CCN(c2ccc(C(F)(F)F)cc2)CC1)c1ccc(NS(C)(=O)=O)c(F)c1 (centres unmarked) [Example 248, 2-(3-fluoro-4-methylsulfonamido-phenyl)-N-{4-trifluoromethyl-2-[4-(4-trifluoromethyl-phenyl)-piperazin-1-yl]-benzyl}-propionamide] | 0.9 nM | 3.9 nM |  | inhibition at 10 µM (VR1/TRPV1 receptor; [5]): 66%; inhibition at 25 µM (VR1/TRPV1 receptor; @ 25 μM, read-out: inhibition in percent, IC50 (human) after pH stimulus): 74%
CC(C(=O)NCc1ccc(C(C)(C)C)nc1N1CCCC1)c1ccc(NS(C)(=O)=O)c(F)c1 (centres unmarked) [Example 240, N-(6-tert-butyl-2-pyrrolidin-1-yl-pyridin-3-ylmethyl)-2-(3-fluoro-4-methansulfonylamino-phenyl)-propionamide] | 5.3 nM | 1.2 nM |  | inhibition at 0.1 µM (VR1/TRPV1 receptor; [5]): 12%; inhibition at 1 µM (VR1/TRPV1 receptor; [4]): 43%
CC(C(=O)NCc1ccc(C(F)(F)F)nc1CCc1ccccc1)c1ccc(NS(C)(=O)=O)c(F)c1 (centres unmarked) [Example 192, 2-(3-fluoro-4-methylsulfonamido-phenyl)-N-(2-phenethyl-6-trifluoromethyl-pyridin-3-ylmethyl)-propionamide] | 2.4 nM | 1.4 nM | 47 nM | 
COc1ccc(-c2nc(C(F)(F)F)ccc2CNC(=O)C(C)c2ccc(NS(C)(=O)=O)c(F)c2)cc1 (centres unmarked) [Example 151, 2-(3-fluoro-4-methylsulfonamido-phenyl)-N-[2-(4-methoxy-phenyl)-6-trifluoromethyl-pyridin-3-ylmethyl]-propionamide] | 1.4 nM | 1 nM | 92.3 nM | 
C[C@H](C(=O)NCc1ccc(C(F)(F)F)cc1N1CCCCC1)c1ccc(NS(C)(=O)=O)c(F)c1 [Example 31, (S)-2-(3-fluoro-4-(methylsulfonamido)phenyl)-N-(2-(piperidin-1-yl)-4-(trifluoromethyl)benzyl)propanamide] |  |  |  | Ki [1, 6]: 0.5 nM; Ki (vanilloid receptor (VR1); [7]): 0.6 nM; IC50 (VR1/TRPV1 receptor; Table 2): 50 nM
CC(C(=O)NCc1ccc(C(F)(F)F)nc1N1CCN(c2ccccc2F)CC1)c1ccc(NS(C)(=O)=O)c(F)c1 (centres unmarked) [Example 201, 2-(3-fluoro-4-methylsulfonamido-phenyl)-N-{2-[4-(2-fluoro-phenyl)-piperazin-1-yl]-6-trifluoromethyl-pyridin-3-ylmethyl}-propionamide] | 1.2 nM | 2.4 nM | 34 nM | 
CC(C(=O)NCc1ccc(C(C)(C)C)nc1OCc1ccccc1)c1ccc(NS(C)(=O)=O)c(F)c1 (centres unmarked) [Example 237, N-(2-benzyloxy-6-tert-butyl-pyridin-3-ylmethyl)-2-(3-fluoro-4-methylsulfonamido-phenyl)-propionamide] | 2 nM | 4.4 nM |  | inhibition at 1 µM (VR1/TRPV1 receptor; [4]): 70%
CC(C)CCCc1nc(C(F)(F)F)ccc1CNC(=O)C(C)c1ccc(NS(C)(=O)=O)c(F)c1 (centres unmarked) [Example 268, 2-(3-fluoro-4-methylsulfonamido-phenyl)-N-[2-(4-methyl-pentyl)-6-trifluoromethyl-pyridin-3-ylmethyl]-propionamide] | 0.8 nM | 0.9 nM | 17 nM | 

Further compounds by falling Ki (vanilloid receptor (VR1); [3]), results first:

Ki [1, 2] | Ki (vanilloid receptor (VR1); [3]) | IC50 (VR1/TRPV1 receptor; table 4) | Compound | further results
3.5 nM | 0.9 nM | 90.1 nM | CCCOc1nc(C(F)(F)F)ccc1CNC(=O)C(C)c1ccc(NS(C)(=O)=O)c(F)c1 (centres unmarked) [Example 111, 2-(3-fluoro-4-methylsulfonamido-phenyl)-N-(2-propoxy-6-trifluoromethyl-pyridin-3-ylmethyl)-propionamide] | 
0.6 nM | 0.7 nM |  | CC(C(=O)NCc1ccc(C(F)(F)F)cc1OC1CCCCC1)c1ccc(NS(C)(=O)=O)c(F)c1 (centres unmarked) [Example 238, N-(2-cyclohexyloxy-4-trifluoromethyl-benzyl)-2-(3-fluoro-4-methylsulfonamido-phenyl)-propionamide] | inhibition at 0.1 µM (VR1/TRPV1 receptor; [5]): 39%; inhibition at 1 µM (VR1/TRPV1 receptor; [4]): 55%
0.6 nM | 0.7 nM | 30.7 nM | CC(C(=O)NCc1ccc(C(F)(F)F)nc1N1CCN(c2ccccc2)CC1)c1ccc(NS(C)(=O)=O)c(F)c1 (centres unmarked) [Example 109, 2-(3-fluoro-4-methylsulfonamido-phenyl)-N-[2-(4-phenyl-piperazin-1-yl)-6-trifluoromethyl-pyridin-3-ylmethyl]-propionamide] | 
0.3 nM | 0.6 nM |  | CCCCCCOc1nc(C(F)(F)F)ccc1CNC(=O)C(C)c1ccc(NS(C)(=O)=O)c(C)c1 (centres unmarked) [Example 257, N-(2-hexyloxy-6-trifluoromethyl-pyridin-3-ylmethyl)-2-(4-methylsulfonamido-3-methyl-phenyl)-propionamide] | inhibition at 1 µM (VR1/TRPV1 receptor; [4]): 67%
0.8 nM | 0.6 nM | 37.6 nM | CCCN(CCC)c1nc(C(F)(F)Cl)ccc1CNC(=O)C(C)c1ccc(NS(C)(=O)=O)c(F)c1 (centres unmarked) [Example 186, N-[6-(chloro-difluoro-methyl)-2-dipropylamino-pyridin-3-ylmethyl]-2-(3-fluoro-4-methylsulfonamido-phenyl)-propionamide] | 
0.2 nM | 0.3 nM | 8 nM | CC(C(=O)NCc1ccc(C(F)(F)F)nc1N1CCC(C)(C)CC1)c1ccc(NS(C)(=O)=O)c(F)c1 (centres unmarked) [Example 210, N-(4,4-dimethyl-6′-trifluoromethyl-3,4,5,6-tetrahydro-2H-[1,2′]bipyridinyl-3′-ylmethyl)-2-(3-fluoro-4-methylsulfonamido-phenyl)-propionamide] | 
